Source: publication PMC5661649, “G-protein-coupled receptors mediate 14-3-3 signal transduction” (Signal Transduction and Targeted Therapy, 2016)
Read-outs that look alike come from different tables or passages of the source. One block for each compound: values may come before it.

Columns and labels:
[1] = molecular target: T1, α1AR (β-arrestin signaling) (Homo sapiens, UniProt P35348); experiment: α1AR/β-arrestin-2 LinkLight assay; format: cell-based; details: α1A-TEV/β-arrestin-pLuc cells, Figure 3f; for EC50: adrenergic agonist panel, read-out: potency (rank order) in β-arrestin signaling
T1 construct: Full-length complementary DNAs of human GPCRs without stop codons were subcloned in frame with the tobacco etch virus (TEV) protease vector; expressed in transfected cells
T1 sequence (P35348 1-466): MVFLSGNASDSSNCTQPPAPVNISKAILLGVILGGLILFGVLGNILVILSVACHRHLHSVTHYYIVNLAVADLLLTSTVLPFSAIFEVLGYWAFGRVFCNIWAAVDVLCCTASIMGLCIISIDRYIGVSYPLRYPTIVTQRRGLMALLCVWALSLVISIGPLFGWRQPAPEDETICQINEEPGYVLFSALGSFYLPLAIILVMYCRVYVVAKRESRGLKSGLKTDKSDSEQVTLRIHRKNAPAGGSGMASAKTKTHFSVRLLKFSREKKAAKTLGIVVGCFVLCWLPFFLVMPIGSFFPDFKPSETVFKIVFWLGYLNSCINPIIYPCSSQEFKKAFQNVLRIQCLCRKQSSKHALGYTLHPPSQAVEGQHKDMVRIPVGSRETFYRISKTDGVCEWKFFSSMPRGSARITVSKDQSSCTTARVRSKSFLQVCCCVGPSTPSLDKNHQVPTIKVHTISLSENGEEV
Experimental: (§1) Multiple stable clones were selected for evaluation.
(§2) Cells were cultured overnight.
The GPCR/β-arrestin-2 LinkLight cells were seeded in white 384-well plates.

α1AR/14-3-3 interaction = experiment: Kinase inhibitor response in α1AR/14-3-3ε LinkLight cells; format: cell-based, human; details: preincubation of α1AR/14-3-3 cells; Figure 3c
Raf-1/14-3-3 interaction = experiment: Kinase inhibition of FBS-stimulated Raf-1/14-3-3 interaction in U2OS cells; format: cell-based; details: 7.5% FBS stimulation, Figure 4d
Experimental: as §2
The LinkLight cells were cultured in a white 384-well plate overnight. The culture medium was then replaced with serum-free DMEM.

[2] = system: Raf-1/14-3-3ε interaction; experiment: GPCR agonist-induced Raf-1/14-3-3ε interaction LinkLight assay in U2OS cells; format: cell-based; details: U2OS stably co-expressing Raf-1-TEV and 14-3-3ε-pLuc, endogenous GPCRs; Figure 4a
Excerpt: (§3) Full-length complementary DNAs of human GPCRs without stop codons were subcloned in frame with the tobacco etch virus (TEV) protease vector as previously described.[20],[21] The β-arrestin-2-permuted luciferase (β-arr-2-pLuc) expression plasmid was also previously described.[20],[21] 14-3-3ɛ and 14-3-3ζ full-length complementary DNAs without stop codons were used to replace β-arrestin-2 in the β-arr-2-pLuc for construction of the 14-3-3ɛ-pLuc and 14-3-3ζ-pLuc expression plasmids. […] Multiple stable clones were selected for evaluation.
The LinkLight cells stably expressing both GPCR-TEV and 14-3-3ε-pLuc were seeded into a 384-well white plate (Becton Dickinson, Franklin Lakes, NJ, USA) at 20 000 cells per well with 30 μl of regular medium. Cells were cultured overnight. The following day, the culture medium was replaced with 15 μl of serum-free DMEM, followed by the addition of 5 μl of compounds/drugs. Agonists were added as serial dilutions in serum-free DMEM from 10 mM dimethylsulfoxide stocks. For antagonist inhibition assays, the medium was replaced with 10 μl of serum-free DMEM. […] An equal volume of Bright-Glo (Promega, Madison, WI, USA), One-Glo (Promega), BriteLite (PerkinElmer, Billerica, MA, USA) or NeoLite (PerkinElmer) luciferase detection reagent was added for a 5-min incubation. The luminescence signals were determined using a luminescence plate reader (EnSpire or TopCount). Alternatively, after compound incubation, the culture medium was replaced with 10 μl of luciferase detection reagent, and luminescence signals were recorded.
The Raf-1/14-3-3ε LinkLight cells were seeded in white 384-well plates.

[3] = molecular target: T2, muscarinic cholinergic receptor 5 (CHRM5) (Homo sapiens, UniProt P08912); experiment: CHRM5/14-3-3ε LinkLight assay, agonist mode; format: cell-based; details: stable CHRM5/14-3-3 LinkLight cells; Figure 2e
T2 construct: Full-length complementary DNAs of human GPCRs without stop codons were subcloned in frame with the tobacco etch virus (TEV) protease vector; expressed in transfected cells
T2 sequence (P08912 1-532): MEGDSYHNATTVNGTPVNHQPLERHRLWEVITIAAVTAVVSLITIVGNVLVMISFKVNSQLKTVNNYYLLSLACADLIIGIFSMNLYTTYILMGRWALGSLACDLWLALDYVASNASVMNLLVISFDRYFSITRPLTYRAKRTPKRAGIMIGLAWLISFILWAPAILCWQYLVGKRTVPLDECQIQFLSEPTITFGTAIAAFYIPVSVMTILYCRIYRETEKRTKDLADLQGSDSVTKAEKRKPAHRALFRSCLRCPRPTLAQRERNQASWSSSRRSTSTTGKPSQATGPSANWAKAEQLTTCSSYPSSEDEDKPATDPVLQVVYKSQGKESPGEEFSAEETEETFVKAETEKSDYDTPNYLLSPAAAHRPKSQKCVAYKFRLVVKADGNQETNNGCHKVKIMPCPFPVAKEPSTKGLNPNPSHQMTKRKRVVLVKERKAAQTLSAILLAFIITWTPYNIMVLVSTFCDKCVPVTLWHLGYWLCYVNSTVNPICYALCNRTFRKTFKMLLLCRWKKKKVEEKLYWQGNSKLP
Excerpt: as §3
(§4) The LinkLight cells stably expressing both GPCR-TEV and 14-3-3ε-pLuc were seeded into a 384-well white plate (Becton Dickinson, Franklin Lakes, NJ, USA) at 20 000 cells per well with 30 μl of regular medium. Cells were cultured overnight. The following day, the culture medium was replaced with 15 μl of serum-free DMEM, followed by the addition of 5 μl of compounds/drugs. Agonists were added as serial dilutions in serum-free DMEM from 10 mM dimethylsulfoxide stocks. For antagonist inhibition assays, the medium was replaced with 10 μl of serum-free DMEM. […] The luminescence signals were determined using a luminescence plate reader (EnSpire or TopCount). Alternatively, after compound incubation, the culture medium was replaced with 10 μl of luciferase detection reagent, and luminescence signals were recorded. […]

[4] = molecular target: T3, Alpha adrenergic receptor 1A (α1AR) (Homo sapiens, UniProt P35348); experiment: α1AR/14-3-3ε LinkLight assay (agonist-induced GPCR-mediated 14-3-3 signaling); format: cell-based
T3 construct: Full-length complementary DNAs of human GPCRs without stop codons were subcloned in frame with the tobacco etch virus (TEV) protease vector; expressed in transfected cells
T3 sequence (P35348 1-466): T1 sequence (P35348 1-466)
Experimental: as §1, §2

[5] = molecular target: T2, muscarinic cholinergic receptor 5 (CHRM5); experiment: CHRM5/14-3-3ε LinkLight assay, antagonist mode; format: cell-based; details: preincubation with antagonist, then 3 μM carbachol; Figure 2f
Excerpt: as §3, §4

[6] = molecular target: T4, β3 adrenergic receptor (ADRB3) (Homo sapiens, UniProt P13945); experiment: ADRB3/14-3-3 LinkLight assay; format: cell-based; details: HEK293 stably expressing ADRB3-TEV and 14-3-3-pLuc; Figure 3d
T4 construct: Full-length complementary DNAs of human GPCRs without stop codons were subcloned in frame with the tobacco etch virus (TEV) protease vector; expressed in transfected cells
T4 sequence (P13945 whole entry): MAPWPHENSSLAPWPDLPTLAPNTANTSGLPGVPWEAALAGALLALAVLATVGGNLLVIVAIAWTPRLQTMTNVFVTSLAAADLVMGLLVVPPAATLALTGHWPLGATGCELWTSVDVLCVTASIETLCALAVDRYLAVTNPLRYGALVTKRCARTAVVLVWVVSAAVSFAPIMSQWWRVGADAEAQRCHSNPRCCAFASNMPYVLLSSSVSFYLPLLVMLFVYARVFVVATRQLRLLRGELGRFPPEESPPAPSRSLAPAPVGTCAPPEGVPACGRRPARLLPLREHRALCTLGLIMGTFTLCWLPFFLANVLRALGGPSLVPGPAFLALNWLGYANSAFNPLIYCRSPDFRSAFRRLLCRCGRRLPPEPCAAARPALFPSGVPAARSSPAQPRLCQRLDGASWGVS
Experimental: as §1, §2

[7] = α1A-TEV/14-3-3ε-pLuc cells, adrenergic agonist panel, Figure 3e, read-out: potency (rank order) in the 14-3-3 signaling assay

SMILES: C[C@H](Cc1ccc(OCC(=O)O)cc1)NC[C@H](O)c1cccc(Cl)c1 [BRL37344]
- agonist behaviour in β-arrestin signaling versus 14-3-3 signaling [1]: much weaker agonists of β-arrestin signaling than of 14-3-3 signaling

SMILES: Cn1c(CNc2cccc(C(=O)NCc3ccccc3C(F)(F)F)c2)nnc1-c1ccncc1 [CMPD101]
- inhibition of cirazoline-stimulated α1AR/14-3-3 signals (α1AR/14-3-3 interaction): did not inhibit

SMILES: O=C1Nc2ccc(I)cc2/C1=C/c1cc(Br)c(O)c(Br)c1 [GW5074]
- inhibition of FBS-stimulated Raf-1/14-3-3 interaction signals (Raf-1/14-3-3 interaction): very weak inhibition activity

SMILES: O=S(=O)(NCCNC/C=C/c1ccc(Br)cc1)c1cccc2cnccc12 [H-89]
- inhibition of cirazoline-stimulated α1AR/14-3-3 signals (α1AR/14-3-3 interaction): did not inhibit

SMILES: CCNC(=O)[C@H]1O[C@@H](n2cnc3c(N)ncnc32)[C@H](O)[C@@H]1O [NECA, 5'-N-ethylcarboxamidoadenosine]
- Raf-1/14-3-3 interaction signals on stimulation with GPCR agonist [2]: concentration-dependent Raf-1/14-3-3 interaction signals

SMILES: O=C1CCCN1CC#CCN1CCCC1 [Oxotremorine, oxotremorine]
- agonist behaviour for 14-3-3 signaling (full/partial) [3]: full agonists

- EC50 [4, 7]: 55.2 nM
- EC50 [1]: 780 nM
SMILES: Brc1c(NC2=NCCN2)ccc2nccnc12 [UK14304]

SMILES: CNC[C@H](O)c1ccc(O)c(O)c1 [adrenaline]
- Raf-1/14-3-3 interaction signals on stimulation with GPCR agonist [2]: concentration-dependent Raf-1/14-3-3 interaction signals

SMILES: CN1[C@@H]2CC[C@H]1C[C@@H](OC(=O)C(CO)c1ccccc1)C2 (stereo partly shown) [atropine]
- inhibition of agonist-induced CHRM5-mediated 14-3-3 signals [5]: antagonist concentration-dependent inhibition signals

- agonist behaviour for 14-3-3 signaling (full/partial) [3]: full agonists
SMILES: C[N+](C)(C)CCOC(N)=O [carbachol]

- EC50 ([4]; HEK293 stably co-expressing α1A-TEV/14-3-3ε-pLuc, Figure 2a, read-out: EC50, α1AR-mediated 14-3-3 signaling): 9.5 nM
- EC50 [4, 7]: 1.72 nM
- ADRB3/14-3-3 interaction signals [6]: very weak signals even at 10 μM
- EC50 [1]: 18.4 nM
SMILES: c1ccc(C2CC2)c(OCC2=NCCN2)c1 [cirazoline]

SMILES: NCCc1ccc(O)c(O)c1 [dopamine]
- Raf-1/14-3-3 interaction signals on stimulation with GPCR agonist [2]: concentration-dependent Raf-1/14-3-3 interaction signals

- EC50 [4, 7]: 12.4 nM
- ADRB3/14-3-3 interaction signals [6]: very weak signals even at 10 μM
- EC50 [1]: 1610 nM
SMILES: N=C(N)NC(=O)Cc1c(Cl)cccc1Cl [guanfacine]

SMILES: CC(C)NCC(O)c1ccc(O)c(O)c1 (stereo not shown) [isoproterenol]
- ADRB3/14-3-3 interaction signals [6]: promoted ADRB3/14-3-3 interaction signals in a concentration-dependent manner
- agonist behaviour in β-arrestin signaling versus 14-3-3 signaling [1]: much weaker agonists of β-arrestin signaling than of 14-3-3 signaling

- EC50 [4, 7]: 11.1 nM
- EC50 [1]: 318 nM
SMILES: COc1ccc(OC)c(C(O)C(C)N)c1 (stereo not shown) [methoxamine]

SMILES: CN1[C@@H]2C[C@@H](OC(=O)[C@H](CO)c3ccccc3)C[C@H]1[C@@H]1O[C@@H]12 [scopolamine]
- inhibition of agonist-induced CHRM5-mediated 14-3-3 signals [5]: antagonist concentration-dependent inhibition signals

SMILES: CCCS(=O)(=O)Nc1ccc(F)c(C(=O)c2c[nH]c3ncc(-c4ccc(Cl)cc4)cc23)c1F [vemurafenib]
- inhibition of FBS-stimulated Raf-1/14-3-3 interaction signals (Raf-1/14-3-3 interaction): partial inhibition
